What was measured:
[1] = Influence of the amount of NaCl on the distribution between oil phase and water phase (Example 5); type: physicochemical
[2] = Second oil phase obtained by adding NaCl to the water phase (Example 4); type: physicochemical; conditions: after separating oil phases I and II
Procedure: Cross linked polystyrene was used as adsorbent material. The volume flux for loading the adsorbent was 300 ml/min.
The adsorbent was heated to 150 °C, the temperature of the applied water steam was 160 °C.
The water steam flux was 10 g/min and was applied for 100 min.
The oil and water phases were separated.
A second oil phase was separated and was collected.

Row | Compound | Distribution in [%] between oil phase and water phase after condensation: Oil phase ([1]; NaCl 0%) | Distribution in [%] between oil phase and water phase after condensation: Water phase ([1]; NaCl 0%) | Distribution in [%] between oil phase and water phase after condensation: Oil phase ([1]; NaCl 27.8 %) | Distribution in [%] between oil phase and water phase after condensation: Water phase ([1]; NaCl 27.8 %) | Distribution in [%] between oil phase and water phase after condensation: Oil phase ([1]; NaCl 41.67%) | Distribution in [%] between oil phase and water phase after condensation: Water phase ([1]; NaCl 41.67%) | Distribution in [%] between oil phase and water phase after condensation: Oil phase ([1]; NaCl 55.56 %) | Distribution in [%] between oil phase and water phase after condensation: Water phase ([1]; NaCl 55.56 %) | Distribution in [%] between oil phase and water phase after condensation: Oil phase ([1]; NaCl 69.44 %) | Distribution in [%] between oil phase and water phase after condensation: Water phase ([1]; NaCl 69.44 %) | Distribution in [%] between oil phase and water phase after condensation: Oil phase ([1]; NaCl 83.33 %) | Distribution in [%] between oil phase and water phase after condensation: Water phase ([1]; NaCl 83.33 %) | Loss in the water phase [2]
1 | CCC(C)CO (centres unmarked) [2-methyl butanol] | 30.8% | 69.2% | 69% | 31% | 64.4% | 35.6% | 70.6% | 29.4% | 82.5% | 17.5% | 82.7% | 17.3% | 17,3%
2 | CCC(C)COC(C)=O (centres unmarked) [2-methyl butyl acetate] | 79.3% | 20.7% | 97.1% | 2.9% | 98.6% | 1.4% | 99.2% | 0.8% | 99.7% | 0.3% | 99.8% | 0.2% | 0,2%
3 | O=Cc1ccccc1 [benzaldehyde] | 27% | 73% | 57.5% | 42.5% | 64.7% | 35.3% | 70.4% | 29.6% | 76.7% | 23.3% | 80.8% | 19.2% | 19,2%
4 | CCCCOC(C)=O [butyl acetate] | 53.5% | 46.5% | 85.6% | 14.4% | 92.5% | 7.5% | 95% | 5% | 97.5% | 2.5% | 98.6% | 1.4% | 1,4%

Further lines, with some results ahead:

Row | Distribution in [%] between oil phase and water phase after condensation: Oil phase ([1]; NaCl 0%) | Distribution in [%] between oil phase and water phase after condensation: Water phase ([1]; NaCl 0%) | Distribution in [%] between oil phase and water phase after condensation: Oil phase ([1]; NaCl 27.8 %) | Distribution in [%] between oil phase and water phase after condensation: Water phase ([1]; NaCl 27.8 %) | Distribution in [%] between oil phase and water phase after condensation: Oil phase ([1]; NaCl 41.67%) | Distribution in [%] between oil phase and water phase after condensation: Water phase ([1]; NaCl 41.67%) | Distribution in [%] between oil phase and water phase after condensation: Oil phase ([1]; NaCl 55.56 %) | Distribution in [%] between oil phase and water phase after condensation: Water phase ([1]; NaCl 55.56 %) | Distribution in [%] between oil phase and water phase after condensation: Oil phase ([1]; NaCl 69.44 %) | Distribution in [%] between oil phase and water phase after condensation: Water phase ([1]; NaCl 69.44 %) | Distribution in [%] between oil phase and water phase after condensation: Oil phase ([1]; NaCl 83.33 %) | Distribution in [%] between oil phase and water phase after condensation: Water phase ([1]; NaCl 83.33 %) | Compound | Loss in the water phase [2]
5 | 17.1% | 82.9% | 29.7% | 70.3% | 41% | 59% | 42.8% | 57.2% | 45.9% | 54.1% | 50.2% | 49.8% | 2-methyl propanol | 49,8%
6 | 69.3% | 30.7% | 92.1% | 7.9% | 96.2% | 3.8% | 97.5% | 2.5% | 98.6% | 1.4% | 99% | 1% | CC(=O)OCC(C)C [2-methylpropyl acetate] | 1,0%
7 | 48.4% | 51.6% | 78.9% | 21.1% | 89% | 11% | 94.6% | 5.4% | 97.4% | 2.6% | 98.5% | 1.5% | CCCC(CC=O)OCC (centres unmarked) [3-ethoxy-hexanal] | 1,5%
8 | 28.4% | 71.6% | 39% | 61% | 63.1% | 36.9% | 69.7% | 30.3% | 68.9% | 31.1% | 82.1% | 17.9% | CC(C)CCO [3-methyl butanol] | 17,9%
9 | 0% | 100% | 0% | 100% | 0% | 100% | 0% | 100% | 0% | 100% | 0% | 100% | CCOC(=O)CC [ethyl propionate] | –

— EP3959993B1, “METHOD FOR SOLVENT FREE PRODUCTION OF AROMA CONCENTRATES” (Symrise AG, priority 2020, dated 2022)
